Reference: US10301286B2, “Piperazine derivative” (Astellas Pharma Inc., priority 2015, dated 2019)
Where a name gives a salt, the structure may show the parent alone.

What was measured:
human MC4 receptor = human MC4 receptor (Homo sapiens (Human), UniProt P32245); assay: Human MC receptor activation, cAMP production in cells expressing human MC4 receptor; type: cell-based; conditions: FreeStyle 293-F cells transiently expressing human MC4 receptor, α-MSH maximum = 100%
From the text: (§1) (1) Construction of Human MC Receptor-Expressing Vector
(§2) A human MC4 receptor gene (GenBank Accession No.: NM_005912.2), a human MC1 receptor gene (GenBank Accession No.: NM_002386.3), or a human MC3 receptor gene (GenBank Accession No.: NM_019888.3) was introduced into an expression vector pcDNA™ 3.1/V5-His TOPO (registered trademark) (Thermo Fisher Scientific Inc.).
(§3) (2) Construction of Cells Transiently Expressing Human MC Receptor
(§4) An expression vector for a human MC4, MC1, or MC3 receptor was introduced into FreeStyle™ 293-F cell (Thermo Fisher Scientific Inc., product number: R790-07). For the introduction, electroporation was employed. That is, 1×10^7 FreeStyle™ 293-F cell were suspended in 80 μL of an electroporation buffer (Thermo Fisher Scientific Inc., product number: B201-100), and 20 μg of the expression vector was added thereto. The resultant was put into a cuvette (OC-100 Processing Assembly, MaxCyte, Inc.) and electroporated with MaxCyte SIX (registered trademark) (MaxCyte, Inc.). The cells were cultured over one day, suspended in a Cell Banker (registered trademark) 1 (JUJI FIELD Inc.), product number: BLC-1), and stored frozen until their use.
(§5) (3) Measurement of Amount of cAMP Produced
(§6) Measurement was carried out by using a LANCE (registered trademark) Ultra cAMP Kit (PerkinElmer, Inc.) in accordance with the attached instructions. That is, after dissolution in DMSO, the test compound (a final concentration of 1 pM to 30 μM) diluted with an assay buffer (Hank's balanced salt solution, 5 mM 4-(2-hydroxyethyl)-1-piperazineethanesulfonic acid (HEPES), 0.5 mM 3-isobutyl-1-methylxanthine (IBMX), 0.1% bovine serum albumin, pH 7.4), or α-MSH (Bachem Inc., a final concentration of 1 pM to 30 μM) was added to OptiPlate-384 (PerkinElmer, Inc.). Furthermore, a suspension of cells transiently expressing the human MC4, MC1, or MC3 receptor prepared by using the assay buffer was added thereto at 1,000 cells/well, followed by being left to stand at room temperature for about 1 hour. Thereafter, an Eu-cAMP tracer solution and an ULight™-anti-cAMP solution were added thereto, followed by being left to stand at room temperature for about 1 hour. The amount of cAMP was calculated using EnVision (registered trademark) (PerkinElmer Inc.).
(§7) For the agonistic activity, an efficacy (EC50 (μM)) was calculated by a non-linear regression method with a Sigmoid-Emax model, by defining the maximum reaction with α-MSH as 100% and the reaction with the vehicle alone as 0%, respectively.

human MC1 receptor = human MC1 receptor (Homo sapiens (Human), UniProt Q01726); assay: Human MC receptor activation, cAMP production in cells expressing human MC1 receptor; type: cell-based; conditions: FreeStyle 293-F cells transiently expressing human MC1 receptor, α-MSH maximum = 100%
From the text: as §1, §2, §3, §4, §5, §6, §7

rat MC4 receptor = rat MC4 receptor (Rattus norvegicus (Rat), UniProt P70596); assay: Rat MC4 receptor activation, cAMP production in cells expressing rat MC4 receptor; type: cell-based; conditions: FreeStyle 293-F cells transiently expressing rat MC4 receptor, α-MSH maximum = 100%
From the text: (1) Construction of Rat MC4 Receptor-Expressing Vector
A rat MC4 receptor gene (GenBank Accession No.: NM_013099.2) was introduced into an expression vector pcDNA™ 3.1/V5-His TOPO (registered trademark) (Thermo Fisher Scientific Inc.).
(2) Construction of Cells Transiently Expressing Rat MC4 Receptor
as §4, with “rat MC4” for “human MC4, MC1, or MC3”, “Inc.).” for “Inc., product number: R790-07).”, “Inc.),” for “Inc., product number: B201-100),”, “STX” for “SIX”, “Inc.),” for “Inc.), product number: BLC-1),”, “until” for “until their”
as §5
Measurement was carried out in accordance with the attached instructions, using a LANCE (registered trademark) Ultra cAMP Kit (PerkinElmer, Inc.). That is, after dissolution in DMSO, the test compound (a final concentration of 1 pM to 30 μM) diluted with an assay buffer (Hank's balanced salt solution, 5 mM HEPES, 0.5 mM IBMX, 0.1% bovine serum albumin, pH 7.4), or α-MSH (Bachem Inc., a final concentration of 1 pM to 30 μM) was added to OptiPlate-384 (PerkinElmer, Inc.). Furthermore, a suspension of cells transiently expressing the rat MC4 receptor, that had been prepared using the assay buffer, was added thereto at 1,000 cells/well, followed by being left to stand at room temperature for about 1 hour. Thereafter, an Eu-cAMP tracer solution and an ULight™-anti-cAMP solution were added thereto, followed by being left to stand at room temperature for about 1 hour. The amount of cAMP was calculated using EnVision (registered trademark) (PerkinElmer Inc.).
as §7

[1] = tested on: Male Sprague Dawley (SD) rats; assay: Action on drug-induced voiding dysfunction model rat; type: in vivo; conditions: po, administered into the stomach, atropine sulfate + midodrine hydrochloride model, inhibition of decrease in voiding efficiency or increase of residual urine, P<0.05, read-out: Minimum effective dose
From the text: Male Sprague Dawley (SD) rats (Japan SLC, Inc.) were anesthetized with isoflurane and a cannula was placed in bladder, the stomach, and the jugular vein. Then, the rats were awakened in a Ballman cage (Natsume Seisakusho Co., Ltd.). After a post-operative stabilization period, physiological saline was continuously infused into the bladder by an infusion pump (Terumo Corporation, product number: TE-331S) to induce voiding. Infusion of the physiological saline was stopped at the time of voiding, and the amount of the voided urine was measured using an electronic top-loading balance placed under the Ballman cage. After completion of voiding, the residual urine was collected by gravity through the cannula placed in the bladder, and weighed, and the weight was defined as the amount of the residual urine. Further, the intravesical pressure was measured by a pressure transducer (Nihon Kohden Corporation, product numbers: TP-400, TDX-100) through the bladder cannula. The test compound or the vehicle was administered into the stomach, and atropine sulfate (Sigma-Aldrich, Inc., 0.01 mg/kg), which is an anticholinergic drug, and midodrine hydrochloride (Sigma-Aldrich, Inc., 0.3 mg/kg), which is an α1 adrenergic receptor stimulant, were administered intravenously to induce voiding dysfunctions. The voiding efficiency (=[voided amount/(voided amount+amount of residual urine)]×100) and the amount of the residual urine before and after administration of the test compound or the vehicle were measured, and the amount changed was evaluated. The value with vehicle administration and the value with the test compound administration were compared in a Dunnett's multiple comparison test with a statistically significant difference (P<0.05), and the minimum dose at which the inhibitory effect on a decrease in voiding efficiency or an increase of the amount of residual urine had been observed was defined as a minimal effective dose (3 to 12 animals per group).

Sequence of human MC4 receptor (P32245 whole entry): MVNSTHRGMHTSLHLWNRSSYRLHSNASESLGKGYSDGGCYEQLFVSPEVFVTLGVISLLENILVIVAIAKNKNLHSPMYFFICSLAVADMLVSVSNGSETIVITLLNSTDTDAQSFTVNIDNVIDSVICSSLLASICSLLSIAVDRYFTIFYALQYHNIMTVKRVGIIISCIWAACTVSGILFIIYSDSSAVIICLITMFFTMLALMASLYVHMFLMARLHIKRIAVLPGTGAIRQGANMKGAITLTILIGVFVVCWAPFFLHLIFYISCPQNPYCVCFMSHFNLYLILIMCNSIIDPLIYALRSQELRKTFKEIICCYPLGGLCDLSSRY
Sequence of human MC1 receptor (Q01726 whole entry): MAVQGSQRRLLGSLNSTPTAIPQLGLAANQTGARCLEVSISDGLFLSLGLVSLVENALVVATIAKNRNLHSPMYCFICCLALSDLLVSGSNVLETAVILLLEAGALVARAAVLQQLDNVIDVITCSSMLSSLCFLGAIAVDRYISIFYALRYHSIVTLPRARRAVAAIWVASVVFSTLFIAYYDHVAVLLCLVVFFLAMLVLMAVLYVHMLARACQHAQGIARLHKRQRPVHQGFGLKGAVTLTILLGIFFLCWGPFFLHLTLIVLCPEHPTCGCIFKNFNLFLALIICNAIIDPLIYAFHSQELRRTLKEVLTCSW
Sequence of rat MC4 receptor (P70596 whole entry): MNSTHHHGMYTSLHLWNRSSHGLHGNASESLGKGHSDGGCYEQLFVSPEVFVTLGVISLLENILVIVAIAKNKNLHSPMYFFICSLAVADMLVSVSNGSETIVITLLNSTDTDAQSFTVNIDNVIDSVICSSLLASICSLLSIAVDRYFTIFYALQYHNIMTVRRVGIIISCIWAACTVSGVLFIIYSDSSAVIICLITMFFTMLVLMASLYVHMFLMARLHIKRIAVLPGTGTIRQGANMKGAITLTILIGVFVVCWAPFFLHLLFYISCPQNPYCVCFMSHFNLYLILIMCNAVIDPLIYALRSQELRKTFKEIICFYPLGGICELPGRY

Row | Compound | EC50 (human MC4 receptor) [µM] | EC50 (human MC1 receptor) [µM] | EC50 (rat MC4 receptor) [µM] | minimal effective dose [1] [mg/kg]
1 | C[C@H]1CN([C@@H](Cc2ccc3c(c2)CCC3)C(=O)O)CCN1C(=O)[C@@H]1CN(C(C)(C)C)C[C@H]1c1ccc(F)cc1F [Example 5, (2S)-2-[(3S)-4-{[(3S,4R)-1-tert-butyl-4-(2,4-difluorophenyl)pyrrolidin-3-yl]carbonyl}-3-methylpiperazin-1-yl]-3-(2,3-dihydro-1H-inden-5-yl)propanoic acid dihydrochloride] | 0.025 | 1.3 | 0.026 | 0.3
2 | CCC[C@H]1CN([C@@H](Cc2ccc3ccccc3c2)C(=O)O)CCN1C(=O)[C@@H]1CN(C(C)(C)C)C[C@H]1c1ccc(F)cc1F [Example 9] | 0.0032 | 0.39 | 0.0026 | 3
3 | Cc1cc(F)c(C[C@@H](C(=O)O)N2CCN(C(=O)[C@@H]3CN(C(C)(C)C)C[C@H]3c3ccc(Cl)cc3F)[C@@H](C)C2)c(F)c1 [Example 76] | 0.00096 | 0.1 | 0.0017 | 0.03
4 | Cc1ccc(C[C@@H](C(=O)O)N2CCN(C(=O)[C@@H]3CN(C4CCOCC4)C[C@H]3c3ccc(Cl)cc3F)[C@@H](C)C2)c(F)c1 [Example 87, (2S)-2-[(3S)-4-{[(3S,4R)-4-(4-chloro-2-fluorophenyl)-1-(tetrahydro-2H-pyran-4-yl)pyrrolidin-3-yl]carbonyl}-3-methylpiperazin-1-yl]-3-(2-fluoro-4-methylphenyl)propanoic acid dihydrochloride] | 0.011 | 1.1 | 0.021 | 0.1
5 | Cc1cc(C)c(C[C@@H](C(=O)O)N2CCN(C(=O)[C@@H]3CN(C4CCOCC4)C[C@H]3c3ccc(Cl)cc3F)[C@@H](C)C2)c(F)c1 [Example 88] | 0.012 | 2.7 | 0.011 | 0.1

Now from value to compound, other results behind:

Row | EC50 (human MC4 receptor) [µM] | EC50 (human MC1 receptor) [µM] | EC50 (rat MC4 receptor) [µM] | Compound | minimal effective dose [1] [mg/kg]
6 | 0.0015 | 0.07 | 0.0013 | Cc1ccc(C[C@@H](C(=O)O)N2CCN(C(=O)[C@@H]3CN(C(C)(C)C)C[C@H]3c3ccc(Cl)cc3F)[C@@H](C)C2)c(F)c1 [Example 4, (2S)-2-[(3S)-4-{[(3S,4R)-1-tert-butyl-4-(4-chloro-2-fluorophenyl)pyrrolidin-3-yl]carbonyl}-3-methylpiperazin-1-yl]-3-(2-fluoro-4-methylphenyl)propanoic acid dihydrochloride] | 0.03
7 | 0.017 | 0.86 | 0.021 | Cc1ccc(C[C@@H](C(=O)O)N2CCN(C(=O)[C@@H]3CN(C(C)(C)C)C[C@H]3c3ccc(Cl)cc3F)[C@@H](C)C2)cc1 [Example 11] | 0.3
8 | 0.003 | 1.3 | 0.0031 | Cc1cc(C)c(C[C@@H](C(=O)O)N2CCN(C(=O)[C@@H]3CN(C(C)(C)C)C[C@H]3c3ccc(Cl)cc3F)[C@@H](C)C2)c(C)c1 [Example 89] | 0.1
